According to article PMC11510069, “Anti-Diabetic Activities and Molecular Docking Studies of Aryl-Substituted Pyrazolo[3,4-b]pyridine Derivatives Synthesized via Suzuki Cross-Coupling Reaction” (Pharmaceuticals, 2024):
Where two headings read alike, the source gives them in different places.

Columns and labels:
[1] = molecular target: T1, α-amylase (Hi media RM 638) enzyme (Aspergillus oryzae, UniProt P0C1B3); experiment: biochemical
T1 construct: purchased Hi media RM 638
Procedure: The anti-diabetic activity of all the prepared derivatives (6a–i) and (7a–i) was evaluated following the method reported in refs. [31, 32]. In brief, to check the anti-diabetic activity of each compound, […] different concentrations, ranging from 250 to 50 μg, with a difference of 50 μg, were used and each concentration was treated with 200 μL of α-amylase (Hi media RM 638) enzyme to determine the anti-diabetic activity in triplicate at each concentration. Here, 0.6 mL of each sample at each concentration was mixed with 0.6 mL of buffered solution (0.03 M sodium phosphate buffer), which was subsequently incubated for 16 min at 37 °C. Afterwards, 1 mL of starch solution was added to the above solutions. In the next step, 1 mL of color-imparting reagent, […] (DNSA), was poured into each solution and the solution was left for 6 min in boiling water. Finally, the solutions were made up to 20 mL with distilled water. […] The absorbance value taken at 670 nm was used to check the performance of the newly obtained derivatives. The following Equation (1) was used to determine the percentage inhibition of each drug at the different concentrations. (1) %A=Acontrol−Asample/Acontrol×100 where %A, Acontrol and Asample are the percentage inhibition, absorbance blank and absorbance of sample, respectively.
The concentration of pyrazolo[3,4-b]pyridine derivative needed to inhibit the α-amylase activity by 50% is known as the IC50 value and is calculated from the plot of the percent inhibition against the log inhibitor concentration (i.e., synthesized drugs). A non-linear regression analysis on Graph Pad Prism 8.0.2. was performed on the plots to extract the IC50 value for each compound.

[2] = Table 2, in vitro anti-diabetic, ester derivatives, read-out: IC50 Value
[3] = Table 3, anti-diabetic, hydrazide derivatives, read-out: IC50 Value
[4] = Figure 6, read-out: IC50 (α-amylase inhibition)

Row | Molecule | IC50 [1, 2] [µM] | melting point [°C] | IC50 [1, 3] [µM] | IC50 [1, 4] [µM]
1 | CCOC(=O)c1cc(-c2ccc(Br)s2)c2c(C)nn(-c3ccccc3)c2n1 [Compound 4, Ethyl 4-(5-Bromothiophen-2-yl)-3-methyl-1-phenyl-1H-pyrazolo[3,4-b]pyridine-6-carboxylate] | 7.26 | 203 to 205 | – | –
2 | Cc1nn(-c2ccccc2)c2nc(C(=O)NN)cc(-c3ccc(Br)s3)c12 [Compound 5, 4-(5-Bromothiophen-2-yl)-3-methyl-1-phenyl-1H-pyrazolo[3,4-b]pyridine-6-carbohydrazide] | – | 265 | 7.91 | –
3 | CCOC(=O)c1cc(-c2ccc(-c3cccs3)s2)c2c(C)nn(-c3ccccc3)c2n1 [Compound 6a, Ethyl 4-([2,2′-Bithiophen]-5-yl)-3-methyl-1-phenyl-1H-pyrazolo[3,4-b]pyridine-6-carboxylate] | 8.38 | 154 to 157 | – | –
4 | CCOC(=O)c1cc(-c2ccc(-c3ccccc3)s2)c2c(C)nn(-c3ccccc3)c2n1 [Compound 6b, Ethyl 3-Methyl-1-phenyl-4-(5-phenylthiophen-2-yl)-1H-pyrazolo[3,4-b]pyridine-6-carboxylate] | 5.14 | – | – | –
5 | CCOC(=O)c1cc(-c2ccc(-c3cccc4c3OCO4)s2)c2c(C)nn(-c3ccccc3)c2n1 [Compound 6c, Ethyl 4-(5-(Benzo[d][1,3]dioxol-4-yl)thiophen-2-yl)-3-methyl-1-phenyl-1H-pyrazolo[3,4-b]pyridine-6-carboxylate] | 5.15 | 127 | – | –
6 | CCOC(=O)c1cc(-c2ccc(-c3cc(OC)cc(OC)c3)s2)c2c(C)nn(-c3ccccc3)c2n1 [Compound 6d, Ethyl 4-(5-(3,5-Dimethoxyphenyl)thiophene-2-yl)-3-methyl-1-phenyl-1H-pyrazolo[3,4-b]pyridine-6-carboxylate] | 7.06 | 147.5 | – | –
7 | CCOC(=O)c1cc(-c2ccc(-c3cccc(C(C)(C)C)c3)s2)c2c(C)nn(-c3ccccc3)c2n1 [Compound 6f, Ethyl 4-(5-(3-(Tert-butyl)phenyl)thiophen-2-yl)-3-methyl-1-phenyl-1H-pyrazolo[3,4-b]pyridine-6-carboxylate] | 58.6 | – | – | 58.7
8 | CCOC(=O)c1cc(-c2ccc(-c3cccc(F)c3F)s2)c2c(C)nn(-c3ccccc3)c2n1 [Compound 6g, Ethyl 4-(5-(2,3-Difluorophenyl)thiophen-2-yl)-3-methyl-1-phenyl-1H-pyrazolo[3,4-b]pyridine-6-carboxylate] | 5.56 | 170.3 | – | 5.2
9 | CCOC(=O)c1cc(-c2ccc(-c3cccc(C(F)(F)F)c3)s2)c2c(C)nn(-c3ccccc3)c2n1 [Compound 6h, Ethyl 3-Methyl-1-phenyl-4-(5-(3-(trifluoromethyl)phenyl)thiophene-2-yl)-1H-pyrazolo[3,4-b]pyridine-6-carboxylate] | 5.2 | 149.5 | – | 5.56
10 | CCOC(=O)c1cc(-c2ccc(-c3ccc(Cl)s3)s2)c2c(C)nn(-c3ccccc3)c2n1 [Compound 6i, Ethyl 4-(5′-Chloro-[2,2′-bithiophen]-5-yl)-3-methyl-1-phenyl-1H-pyrazolo[3,4-b]pyridine-6-carboxylate] | 7.4 | 165 | – | –
11 | Cc1nn(-c2ccccc2)c2nc(C(=O)NN)cc(-c3ccc(-c4cccs4)s3)c12 [Compound 7a, 4-([2,2′-Bithiophen]-5-yl)-3-methyl-1-phenyl-1H-pyrazolo[3,4-b]pyridine-6-carbohydrazide] | – | 255 | 5.21 | –
12 | Cc1nn(-c2ccccc2)c2nc(C(=O)NN)cc(-c3ccc(-c4ccccc4)s3)c12 [Compound 7b, 3-Methyl-1-phenyl-4-(5-phenylthiophen-2-yl)-1H-pyrazolo[3,4-b]pyridine-6-carbohydrazide] | – | – | 5.18 | –
13 | Cc1nn(-c2ccccc2)c2nc(C(=O)NN)cc(-c3ccc(-c4cccc5c4OCO5)s3)c12 [Compound 7c, 4-(5-(Benzo[d][1,3]dioxol-4-yl)thiophen-2-yl)-3-methyl-1-phenyl-1H-pyrazolo[3,4-b]pyridine-6-carbohydrazide] | – | 276 | 5.17 | –
14 | COc1cc(OC)cc(-c2ccc(-c3cc(C(=O)NN)nc4c3c(C)nn4-c3ccccc3)s2)c1 [Compound 7d, 4-(5-(3,5-Dimethoxyphenyl)thiophen-2-yl)-3-methyl-1-phenyl-1H-pyrazolo[3,4-b]pyridine-6-carbohydrazide] | – | 249 | 5.12 | –
15 | Cc1ccc(-c2ccc(-c3cc(C(=O)NN)nc4c3c(C)nn4-c3ccccc3)s2)c(C)c1 [Compound 7e, 4-(5-(2,4-Dimethylphenyl)thiophen-2-yl)-3-methyl-1-phenyl-1H-pyrazolo[3,4-b]pyridine-6-carbohydrazide] | – | – | 8.94 | –
16 | Cc1nn(-c2ccccc2)c2nc(C(=O)NN)cc(-c3ccc(-c4cccc(C(C)(C)C)c4)s3)c12 [Compound 7f, 4-(5-(3-(Tert-butyl)phenyl)thiophen-2-yl)-3-methyl-1-phenyl-1H-pyrazolo[3,4-b]pyridine-6-carbohydrazide] | – | – | 5.1 | –
17 | Cc1nn(-c2ccccc2)c2nc(C(=O)NN)cc(-c3ccc(-c4cccc(F)c4F)s3)c12 [Compound 7g, 4-(5-(2,3-Fluorophenyl)thiophen-2-yl)-3-methyl-1-phenyl-1H-pyrazolo[3,4-b]pyridine-6-carbohydrazide] | – | 275 | 5.15 | 5.16
18 | Cc1nn(-c2ccccc2)c2nc(C(=O)NN)cc(-c3ccc(-c4cccc(C(F)(F)F)c4)s3)c12 [Compound 7h, 3-Methyl-1-phenyl-4-(5-(3-(trifluoromethyl)phenyl)thiophen-2-yl)-1H-pyrazolo[3,4-b]pyridine-6-carbohydrazide] | – | – | 5.19 | 6.19
19 | Cc1nn(-c2ccccc2)c2nc(C(=O)NN)cc(-c3ccc(-c4ccc(Cl)s4)s3)c12 [Compound 7i, 4-(5′-Chloro-[2,2′-bithiophen]-5-yl)-3-methyl-1-phenyl-1H-pyrazolo[3,4-b]pyridine-6-carbohydrazide] | – | 270 | 8.45 | –
20 | Ethyl 4-(5-(3,5-Dimethylphenyl)thiophen-2-yl)-3-methyl-1-phenyl-1H-pyrazolo[3,4-b]pyridine-6-carboxylate [Compound 6e] | 9.01 | – | – | –
